The values that follow are results of earlier work, collected in patent US10307430B2, “KATP antagonists (glibenglamid) for use for promoting growth and/or treating hyperglycaemia of a premature infant” (ASSISTANCE PUBLIQUE—HOPITAUX DE PARIS, priority 2011, dated 2019).

The conditions of series [1]: intravenous, first week of life, very low birth weight infants (Beardsall et al., 2007).
For series [2] the following is noted: preterm newborn infants, when used with caution (Mitanchez, 2007; Beardsall and Dunger, 2008).
Another series deals with human fetal β cells. The following applies: human fetal β cells from 14 to 20 week gestational fetus (Weinhaus et al., 2003).
The mark [3] stands for this setting: early insulin replacement, intravenous (Beardsall et al., 2008).

insulin: in series [1], the IGF-I levels result is on record as “increases IGF-I levels” and the blood glucose control result is “improves blood glucose control”. In addition, under setting [3], the risk of hypoglycaemia entry is “increased risk of hypoglycaemia” and the “weight loss in the first week of life” value is listed as “reduced weight loss”. Moreover, the glucose control result (early insulin replacement, intravenous, 194 very-low-birth-weight infants (Beardsall et al., 2008)) was “improved glucose control”. For the same molecule, for the setting “early insulin therapy, infants with very low birth weight (Beardsall et al., 2008)”, the clinical benefit result is “no clinical benefit”. The endogenous glucose production entry in series [2] was “efficient to reduce endogenous glucose production”.
`Cc1cnc(C(=O)NCCc2ccc(S(=O)(=O)NC(=O)NC3CCCCC3)cc2)cn1` [glipizide]: in the series on human fetal β cells, the “insulin secretion in response to secretagogue” value (from here on “insulin secretion in response”) was “able to secrete insulin”.
Take `COC(=O)C1=C(C)NC(C)=C([N+](=O)[O-])C1c1ccccc1C(F)(F)F` (stereo not shown) [BAY K8644]: in the series with human fetal β cells, the “insulin secretion in response” value is “able to secrete insulin”.
Turning to `[Cl-].[K+]` [KCl], in the series with human fetal β cells, the “insulin secretion in response” value was “able to secrete insulin”.
